# Reference: article PMC8910697, “Development of VPC-70619, a Small-Molecule N-Myc Inhibitor as a Potential Therapy for Neuroendocrine Prostate Cancer” (International Journal of Molecular Sciences, 2022)
# “Also recorded” adds a separate entry of the source. Where two headings read alike, the source gives them in different places.
# What was measured:
# [1] = Pharmacokinetics after IP and PO dosing; assay type: in vivo, male Balb/c mice; conditions: 10 mg/kg; for half-life / Cmax: male, Balb/c, mouse, plasma; for Cmax: 70551 in 75:25 PG/PEG 400, 70619 in 20:80 Kolliphor EL
# Description: In order to characterize VPC-70619 as a drug candidate against N-myc, its pharmacokinetic (PK) characteristics were evaluated in Balb/c mice following intraperitoneal (IP) and peroral (PO) administrations. As presented in Figure 5, we determined the PK properties of VPC-70619 and compared it to the parental molecule, VPC-70551. […] The clearance of 70551 for PO delivery was extremely slow, and we could not determine the T1/2 in the experimental conditions used for this assay. […] Therefore, VPC-70619 was deemed to have appropriate efficacy in vivo, and a better pharmacokinetic profile due to higher bioavailability for both oral and intraperitoneal administration.
# Bienta Enamine Biology Services (Kyiv, Ukraine) conducted PK studies according to the Enamine PK study protocols and Institutional Animal Care and Use Guidelines. The PK studies were reviewed and approved by the Bienta Animal Care and Use Committee (BACUC) under the project identification codes PK-VPC-112618 (approved 17 December 2018) and PK-VPC-101119 (approved 21 October 2019), for VPC-70551 and […], respectively. Evaluation of 70619 and 70551 was conducted in male Balb/c mice through intraperitoneal (IP) and peroral (PO) administration. Measurements were taken at six time points: 5, 15, 60, 120, 240, and 360 min for IP; 15, 30, 60, 120, 240, and 480 min for PO. Four mice were included in each treatment group for each time point; one mouse each for IP and PO was included as a control. Initial target administration for both IP and PO was 10 mg/kg dose level, 2 mg/mL dose concentration, and 5 mL/kg dose volume. Concentration of the compounds was evaluated in the plasma samples using an LC-MS/MS system.
# [2] = system: N-Myc-Max binding to DNA E-box; experiment: Biolayer interferometry (BLI), N-Myc-Max binding to biotinylated E-box DNA; assay type: biochemical; conditions: BLI, 0, 50, 100, 200 µM
# Source text: To confirm that 70619 could disrupt the binding of N-Myc-Max DBD to DNA, we performed a bio-layer interferometry (BLI) assay where we immobilized biotinylated E-box sequence on streptavidin sensors, and we evaluated recombinant N-Myc-Max binding to the DNA in the presence of increasing concentrations of VPC-70619. […] We observed a similar number of interactions when comparing the ratio of signal per nuclei in the presence or absence of the compound.
# The bHLHLZ domain of N-Myc (amino acids 309–394) and Max (amino acids 12–93) protein sequences were cloned into pETDuet with an N-terminal 6×His. pETDuet-His-NMyc-Max was transformed and expressed in E. coli BL21 and induced with 0.5 mM isopropyl-β-D-thiogalactopyranoside (IPTG) at 16 °C overnight. The cultures were lysed by sonication and combined for purification by immobilized metal ion chromatography (IMAC) with nickel-nitrilotriacetic acid (Ni-NTA) resin. The bound proteins were eluted from the column with 20 mM Tris, pH = 8, 500 mM NaCl, 5% glycerol, 300 mM imidazole, 5 mM βMe, and 0.1 mM PMSF. Size exclusion chromatography with Superdex 75 was used to increase the purity of the N-Myc-Max protein sample. The purified protein complex was used in subsequent BLI and MST experiments.
# Biotinylated-duplex DNA (Forward: 5′ Biotin-[…], Reverse: […]) was bound to the super-streptavidin (SSA) ForteBio Sensor in the assay buffer [20 mM Tris pH = 8, 150 mM NaCl, 5% glycerol, and 0.2 mM TCEP]. The protein solution was mixed with the serially diluted compound (70619) to a final concentration of 0.1 mg/mL of protein and 200 μM, 100 μM, and 50 μM for the compound. Sample containing N-Myc-Max protein alone was used as a control.
# NCI-H660 cells = experiment: Cell viability (CellTiter-Glo), NCI-H660; assay type: cell-based
# Description: (§1) Viability of N-Myc positive (IMR32and NCI-H660) and negative (HO15.19) cells were determined using the CellTiter-Glo Luminescent Cell Viability Assay (Promega cat. G7570) (Madison, WI, USA). Cells were seeded into a 96-well white plate with a clear bottom: 10,000 cells per well for the IMR32 cells cultured in EMEM supplemented with 10% FBS, 2000 HO15.19 cells per well in Eagle’s minimum essential medium (EMEM) supplemented with 10% FBS, and 2000 cells per well for the NCI-H660 neuroendocrine cells cultured in RPMI supplemented 5% FBS, 1% Insulin-Transferrin-Selenium (Thermo Fisher, 41400-045), 10nM b-estradiol (Sigma, E8875), 10nM hydrocortisone (Sigma H0888) and 1% matrigel. Following 24 h incubation, the cells were treated with serial dilutions of the derivatives along with the respective parental compound starting at 25 μM for 72 h. Cell Titer Glo was added to each well at a ratio of 1:1 and incubated on a shaker at RT for 2 min. Luminescence and IC50 was measured with the TECAN InfiniteM200 plate reader (Männedorf, Switzerland).
# HO15.19 cells = experiment: Cell viability counter-screen (CellTiter-Glo), Myc-negative HO15.19; assay type: cell-based
# Description: The 54 compounds were tested at 10 µM for their inhibition of the IMR32 human neuroblastoma cell line, in which the MYCN gene is amplified and actively expressed (Table 3). HO15.19 cell line (Myc-negative) was used in parallel as a compound specificity control.
# as §1
# [3] = system: N-Myc-Max transcription activity (LNCaP-NMYC cells); experiment: Myc transcription assay (Cignal Myc reporter, luciferase) in LNCaP-NMYC cells; assay type: cell-based
# Procedure, shortened: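 LNCaP-NMYC cells transfected with Cignal Myc luciferase reporter were treated 24 h with compounds at 5 µM or 10 µM. Read-out: inhibition of N-Myc-Max-driven reporter luminescence.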
structure (smiles),measurement,setting,value
N#Cc1ccc(NNC(=O)c2ccc(C#N)c(Cl)c2)c(C(F)(F)F)c1 [compound 70619],half-life,"[1]; ip, read-out: plasma half-life (T1/2) IP",5.5 h
same,half-life,"[1]; po, read-out: plasma half-life (T1/2) PO",7.12 h
same,Cmax,"[1]; IP, read-out: Cmax IP",29500 ng/mL
same,Cmax,"[1]; PO, read-out: Cmax PO",24000 ng/mL
same,adverse effects / signs of toxicity in PK animals,[1]; single dose IP or PO,No signs of toxicity
same,disruption of DNA binding to (N-)Myc-Max (in words),[2],disrupt DNA binding at 100 µM
same,disruption of DNA binding to (N-)Myc-Max (in words),[2]; listed as VPC-70619,effective at blocking N-Myc-Max binding to DNA in a dose-dependent manner
same,IC50,"NCI-H660 cells; NCI-H660, 72 h, read-out: IC50 cell proliferation in NCI-H660",7 µM
same,inhibition of NCI-H660 (in words),NCI-H660 cells; NEPC in vitro model,good inhibition
same,% Inhibition in HO15.19 (10 µM),"HO15.19 cells; 10 µM, Myc-negative specificity control",14.1%
same,inhibition at 10 µM,"HO15.19 cells; Rattus norvegicus, HO15.19, 10 µM, Myc-negative specificity control",14%
same,cytotoxicity in Myc-negative HO15.19 (in words),HO15.19 cells; counter-screen,did not report any strong inhibitory effects; also recorded: minimal cytotoxicity
same,IC50,"[3]; 24 h, treatment for 1 day, 0–25 µM, read-out: IC50 in the luciferase transcription inhibition assay",4.3 µM
same,transcription inhibition activity at 5 µM (in words),"[3]; LNCaP-NMYC, 5 µM",restoring the inhibitory activity
